Data published in article PMC12143354, “Determining sex differences in aortic valve myofibroblast responses to drug combinations identified using a digital medicine platform” (Science Advances, 2025).
Where two headings read alike, the source gives them in different places.

What was measured:
male VICs [1] = assay: percent αSMA GMI reduction by immunofluorescent staining, male VICs on TCPS; format: cell-based, pig; conditions: for reduction in αSMA GMI, initial screen: male VICs on TCPS, dosing range 10^-7 to 10^3 μM; for Percent αSMA reduction, Average: male VICs, n = 3 wells
Protocol: (§1) VICs were collected by aspirating off spent media, washing with PBS (Sigma-Aldrich) for 1 min, then incubating with 1× trypsin (Life Technologies) for 3 min. Trypsin was neutralized with an equal volume of 15% FBS growth media and centrifuged for 5 min at 0.2g. The media solution was then aspirated, and VICs were resuspended with 1 ml of 1% FBS media. VICs were counted with an automated hemocytometer to calculate the volume of cell solution to add to each well to seed at 6400 cells per well (20,000 cells/cm^2) for TCPS and hydrogel experiments. […] For each inhibitor, the nonlinear regression tool in Prism was used to estimate the response against the agonist by fitting the top, bottom, EC50/CC50, and hillslope to each dataset.

male VICs [2] = assay: percent αSMA GMI reduction, male VICs on soft hydrogels; format: cell-based, pig; conditions: n = 3 gels
From the text: (§2) Last, we tested the ability of […]-designed combinations to prevent myofibroblast activation in VICs cultured on other substrates beyond stiff hydrogels. […] Six male-optimized combinations were effective in preventing male VIC myofibroblast activation (Fig. 7K). […] Single-drug monotherapies used in the top male and female drug combinations were confirmed to have a minimal effect on male and female VIC αSMA GMI on soft hydrogels (table S14). […] After aspirating off the spent media, VICs were resuspended in 5 ml of fresh 15% FBS media and seeded on T25 Falcon tissue culture-treated flasks (Thermo Fisher Scientific). […] VICs were collected by aspirating off spent media, washing with PBS (Sigma-Aldrich) for 1 min, then incubating with 1× trypsin (Life Technologies) for 3 min. Trypsin was neutralized with an equal volume of 15% FBS growth media and centrifuged for 5 min at 0.2g. The media solution was then aspirated, and VICs were resuspended with 1 ml of 1% FBS media. VICs were counted with an automated hemocytometer to calculate the volume of cell solution to add to each well to seed at 6400 cells per well (20,000 cells/cm^2) for TCPS and hydrogel experiments. […] For each inhibitor, the nonlinear regression tool in Prism was used to estimate the response against the agonist by fitting the top, bottom, EC50/CC50, and hillslope to each dataset.

male VICs [3] = assay: percent αSMA GMI reduction, male VICs on stiff hydrogels; format: cell-based, pig; conditions: male VICs; for EC1 / EC2: from dose response curves; for Percent αSMA reduction, Average: n = 3-4 gels
Protocol: (§3) Glass-bottom 96-well plates (Cellvis) were placed in an autoclave jar with a scintillation vial containing 100 μl of mercaptopropyltrimethoxysilane (MPTS; Sigma-Aldrich). The autoclave jar was then lightly sealed and placed inside an oven at 60°C for a minimum of 6 hours. The autoclave jar was opened in a chemical fume hood, and the vapor-deposited well plate was stored for up to 2 hours until ready for use. Eight-arm 20-kDa PEG-norbornene (PEG-Nb) was formed as outlined previously ([76]). A 7% (w/v) PEG-Nb hydrogel precursor solution was formed by combining phosphate-buffered saline (PBS), 20-kDa PEG-Nb at a 0.98:1 thiol-to-ene ratio, 5-kDa PEG-dithiol (Jenkem), CRGDS cell binding motif (Bachem), and lithium phenyl-2,4,6-trimethyl-benzoylphosphinate (Thermo Fisher Scientific). An EPMotion 5073l automated liquid handling system (Eppendorf) was used to pipet 7 μl of the hydrogel precursor solution into the center of each well of the vapor-deposited 96-well glass-bottom plate. The well plate with the hydrogel precursor solution was then stamped using a custom 96-well plate stamp, inverted, and cured under ultraviolet light at 10 mW/cm^2 for 3 min to induce gelation. The stamp was carefully removed by hand, and the newly formed gels were sterilized with a solution of 5% isopropyl alcohol (Thermo Fisher Scientific) in PBS for 20 min. Gels were then washed twice with PBS and stored in VIC media composed of Media199 (Life Technologies), 1% fetal bovine serum (FBS, Life Technologies), amphotericin B (1 μg/ml; Thermo Fisher Scientific), penicillin (50 U/ml; Sigma-Aldrich), and streptomycin (50 μg/ml; Sigma-Aldrich). Last, the hydrogels were placed in an incubator at 37°C with 5% carbon dioxide for up to 24 hours until experimental use.
(§4) Media changes were performed every 24 to 48 hours until cells reached ~80% confluency. […] The media solution was then aspirated, and VICs were resuspended with 1 ml of 1% FBS media. VICs were counted with an automated hemocytometer to calculate the volume of cell solution to add to each well to seed at 6400 cells per well (20,000 cells/cm^2) for TCPS and hydrogel experiments. For all experiments, VICs were seeded with 1% FBS media containing the specified drug doses and incubated at 37°C with 5% carbon dioxide with media changes every 48 to 72 hours if needed.
(§5) Drug stock solutions were discarded after two thaw cycles or after 10 months of storage. For all experiments, drug dilutions were calculated and added to VIC media to ensure that total DMSO levels remained below 1% for cytotoxicity and αSMA reduction curve fitting experiments and below 0.3% for drug combination experiments.
(§6) After culture on hydrogels or TCPS, the spent drug-containing media were removed, and VICs were immersed in a 4% paraformaldehyde solution in PBS for 20 min and then permeabilized for 1 hour with 0.1% Triton X-100 (Thermo Fisher Scientific) in PBS. Cells were then blocked with 5% bovine serum albumin in PBS for 1 hour at room temperature or over the weekend at 4°C. […] Last, VICs were washed once with PBS and then stored in PBS at 4°C until imaging. Gel samples were imaged in situ using a Nikon Eclipse Ti2-E and analyzed using an automated MATLAB code to quantify the αSMA gradient mean intensities and caspase-3 intensities normalized to cell mask for each cell. A minimum of 100 cells were used per gel with multiple gels used per condition.
(§7) Curve fitting for VIC percent αSMA reduction and cytotoxicity was performed using GraphPad Prism 10 (GraphPad Software Inc). For each inhibitor, the nonlinear regression tool in Prism was used to estimate the response against the agonist by fitting the top, bottom, EC50/CC50, and hillslope to each dataset. After 2 days of culture, the percent αSMA reduction was calculated using the average αSMA gradient mean intensities of the control relative to the drug condition using Eq. 1 %αSMA reduction=100×(Control−Drug Condition/Control) (1)

female VICs [4] = tested on: female VICs
Protocol: as §6
(§8) Percent cytotoxicity was determined by designating each cell as alive or dead using caspase-3 intensity normalized to cell mask intensity, which was thresholded using a positive and negative control for cell death [10 nM staurosporine (Cell Signaling Technologies) or 1% FBS media]. The bottom value for every curve fit was set to 0, and the top value was constrained to a maximum of 100 to indicate the maximum possible effect of the drug. […] Absolute EC and CC values for % αSMA reduction and percent cytotoxicity were quantified using the top, bottom, EC50/CC50, and hillslope values estimated from the curve fits generated in GraphPad Prism (GraphPad Software Inc).

male VICs [5] = tested on: male VICs
Protocol: as §6, §8

female VICs [6] = assay: percent αSMA GMI reduction, female VICs on soft hydrogels; format: cell-based, pig; conditions: n = 3 gels
From the text: as §2

female VICs [7] = assay: percent αSMA GMI reduction by immunofluorescent staining, female VICs on TCPS; format: cell-based, pig; conditions: for reduction in αSMA GMI, initial screen: female VICs on TCPS, dosing range 10^-7 to 10^3 μM; for Percent αSMA reduction, Average: female VICs, TCPS, n = 3 wells
Protocol: as §1

female VICs [8] = assay: percent αSMA GMI reduction, female VICs on stiff hydrogels; format: cell-based, pig; conditions: for EC1 / EC2: from dose response curves; for Percent αSMA reduction, Average: n = 3-4 gels
Protocol: as §3, §4, §5, §6, §7

[9] = female VICs on stiff gels, n = 3 gels
[10] = female VICs, stiff hydrogels, from dose response curves
[11] = male VICs on stiff gels, n = 3 gels
[12] = male VICs, stiff hydrogels, from dose response curves

SMILES | reduction in αSMA GMI, initial screen (male VICs [1]) [%] | Percent αSMA reduction, Average (male VICs [1]; TCPS, single drug at L2 dose) [%] | Percent αSMA reduction, Average (male VICs [2]; single drug at L2 dose) [%] | EC1 (male VICs [3]) [µM] | EC2 (male VICs [3]) [µM] | Percent αSMA reduction, Average (male VICs [3]; single drug at level 1 dose) [%] | Percent αSMA reduction, Average (male VICs [3]; single drug at level 2 dose) [%] | Percent αSMA reduction, Average (female VICs [6]; single drug at L2 dose) [%] | reduction in αSMA GMI, initial screen (female VICs [7]) [%] | Percent αSMA reduction, Average (female VICs [7]; single drug at L2 dose) [%] | EC1 (female VICs [8]) [µM] | EC2 (female VICs [8]) [µM] | Percent αSMA reduction, Average (female VICs [8]; single drug at level 1 dose) [%] | Percent αSMA reduction, Average (female VICs [8]; single drug at level 2 dose) [%] | CC25 (percent cytotoxicity) (female VICs [4]; [9]) [µM] | CC1 (female VICs [4]; [10]) [µM] | CC2 (female VICs [4]; [10]) [µM] | CC25 (percent cytotoxicity) (male VICs [5]; [11]) [µM] | CC1 (male VICs [5]; [12]) [µM] | CC2 (male VICs [5]; [12]) [µM] | further results
O=c1cc(N2CCOCC2)oc2c(-c3ccccc3)cccc12 [LY294002] | > 25 | -4.91 | 13.23 | 12.8 | 17.6 | 6.86 | 5.50 | 11.35 | > 25 | -8.32 | 8.63 | 13.4 | 9.50 | 2.75 | – | – | – | – | – | – | CC1 (female VICs [4]; female, pig): 17.7 µM; CC2 (female VICs [4]; female, pig): 21.3 µM; CC25 (percent cytotoxicity) (female VICs [4]; female, pig): 45.2 µM; CC1 (male VICs [5]; male, pig): 21.5 µM; CC2 (male VICs [5]; male, pig): 25.2 µM; CC25 (percent cytotoxicity) (male VICs [5]; male, pig): 46.9 µM
Fc1ccc(Cl)cc1-c1nc(Nc2ccncc2)c2nccnc2n1 [SD-208] | > 25 | 7.80 | 5.58 | 0.0582 | 0.188 | 14.60 | 0.63 | 9.37 | > 25 | 3.05 | 0.0061 | 0.0275 | 4.19 | 8.81 | 70.1 | 34.8 | 40.1 | 58.9 | 26.6 | 31.1 | –
Cc1cncc2cccc(S(=O)(=O)N3CCCNC[C@@H]3C)c12 [Combination H1152] | > 25 | -0.09 | -5.04 | 1.96 | 2.82 | -5.03 | 0.66 | 3.37 | > 25 | 2.30 | 0.0765 | 0.198 | 8.04 | 12.39 | 72.6 | 0.26 | 0.806 | 6.27 | 0.162 | 0.28 | –
C[S+]([O-])c1ccc(-c2nc(-c3ccncc3)c(-c3ccc(F)cc3)[nH]2)cc1 (centres unmarked) [SB203580] | > 25 | – | – | 24.8 | 40.8 | 5.45 | 3.67 | – | > 25 | – | 7.56 | 14.5 | 2.35 | -6.55 | – | – | – | – | – | – | CC1 (female VICs [4]; female, pig): 29.8 µM; CC2 (female VICs [4]; female, pig): 48.9 µM; CC25 (percent cytotoxicity) (female VICs [4]; female, pig): 874 µM; CC1 (male VICs [5]; male, pig): 0.413 µM; CC2 (male VICs [5]; male, pig): 2.18 µM; CC25 (percent cytotoxicity) (male VICs [5]; male, pig): 1,613 uM
O=C(COCC(=O)Nc1ccc(Cl)cc1C(=O)O)Nc1cccc(-c2ccoc2)c1 [TM5441] | > 25 | 18.36 | 13.16 | 4.96 | 9.3 | -1.46 | 2.18 | 17.16 | > 25 | 8.37 | 24.8 | 33.6 | 1.52 | -7.64 | 191 | 19.7 | 31.1 | 51.3 | 18.9 | 21.9 | –
C[C@@H](N)[C@H]1CC[C@H](C(=O)Nc2ccncc2)CC1 [Combination Y-27632] | > 25 | – | – | 0.558 | 1.34 | 0.24 | 2.37 | 8.24 | > 25 | -2.07 | 1.31 | 2.81 | 28.93 | 22.12 | – | – | – | – | – | – | sex difference in efficacy (male versus female EC20) (male VICs [1]; TCPS, unpaired two-tailed t test, P < 0.05): significantly more effective in male VICs relative to female VICs; Percent αSMA reduction, Average (male VICs [1]; TCPS, single drug at L1 dose): 6.48%; Percent αSMA reduction, Average (male VICs [2]; single drug at L1 dose): -2.58%; CC1 (female VICs [4]): 27.5 µM; CC2 (female VICs [4]): 37.9 µM; CC25 (percent cytotoxicity) (female VICs [4]): 135 µM; CC1 (male VICs [5]): 10.8 µM; CC2 (male VICs [5]): 19.9 µM; CC25 (percent cytotoxicity) (male VICs [5]): 224 µM; Percent αSMA reduction, Average (female VICs [6]; single drug at L1 dose): 3.22%; Percent αSMA reduction, Average (female VICs [7]; single drug at L1 dose): 0.37%
